Values belong to the compound of their own block, whether it stands above or below them.
Key:
HEK 293 cells = experiment: Depletion of intracellular Ca2+ stores in LTRPC3-HA- and vector-transfected HEK 293 cells (FLIPR); assay type: cell-based; conditions: no external Ca^2+
[1] = test system: endogenous Ca^2+ entry pathway in HEK 293 cells; experiment: FLIPR Fluo-4 Ca2+ entry in vector-transfected HEK 293 cells (endogenous pathway); assay type: cell-based; conditions: 100 μM Gd^3+
Protocol: (§1) Panels A, C and E show results obtained for vector-transfected cells, while Panels B, D and F show results obtained for TRPM3-transfected cells. […] Cells loaded with Fluo-4 were incubated in 1 mM Ca^2+ solution and treated with 100 μM of Gd^3+ (red) or without blockers (black) for 10 min prior to the addition of 10 mM Ca^2+ to the bath solution as indicated. […] Cells loaded with Fluo-4 were incubated in a nominally Ca^2+-free media and treated without blockers (black) or with 100 μM of Gd^3+ (red) for 10 min prior to the addition of 2 μM TG (Panels C and D, first arrow) or 50 μM CCh (Panels E and F, first arrow), Ca^2+ entry was stimulated by the bath addition of […] (second arrow). Representative traces from one of three independent experiments are shown; each trace is the mean of 12 wells per condition. Physiometric methods were performed as described in Example 10 herein.
(§2) Moreover, physiometric studies have shown that LTRPC3 is a functional Ca^2+ permeable channel (see FIGS. 18 and 19, and Example 7). LTRPC3 function was assessed using a Fluorometric Imaging Plate Reader (FLIPR™) that measures real-time intracellular fluorescence changes. Cells transiently transfected with vector or LTRPC3-HA were loaded with the cytoplasmic Ca^2+ indicator Fluro-4 in a 1 mM Ca^2+ solution. […] The non-transfected cells were indistinguishable from the vector-transfected cells (data not shown). Therefore, LTRPC3 is a constitutively active channel capable of mediating Ca^2+ influx.
To further address the mechanism of LTRPC3-mediated Ca^2+ entry, similar Ca^2+ addition experiments were performed on transfected cells incubated (˜30 min) in a nominally Ca^2+-free solution. Previous studies have shown that lowering extracellular Ca^2+ concentration below physiological levels can deplete intracellular Ca^2+ stores in many cell types including HEK 293 (EMBO J. 17, 4274-4282, (1998)). […]
Additional experiments were performed to further confirm the Ca^2+ store-depleted activation of LTRPC3 using Gd^3+. […] Gd^3+ reduced fluorescence units in vector-transfected cells from 1470±140 to −58±8 and in LTRPC3-transfected cells from 6000±322 to 2080±199 (n=12). Fluorescence values were measured 150 seconds after adding 10 mM Ca^2+ and percent blockade was calculated as 1 minus FLTRPC3−FVector in the presence of Gd^3+ divided by FLTRPC3−FVector without blocker. […] Gd^3+ reduced peak fluorescence after 10 mM Ca^2+ addition in vector-transfected cells from 26444±2410 to 1316±60 and in LTRPC3-transfected cells from 37676±2425 to 6783±250 (see FIGS. 22C and D, respectively; n=12). […] Gd^3+ reduced peak Ca^2+ fluorescence in vector-transfected cells from 9327±466 to 453±15 and in LTRPC3-transfected cells from 14747±988 to 1975±79 (see FIGS. 22E and F, respectively; n=12).

LTRPC3 [2] = target: T1, LTRPC3 (Homo sapiens, UniProt Q9HCF6, R1695Q); experiment: FLIPR Fluo-4 Ca2+ entry in LTRPC3-transfected HEK 293 cells; assay type: cell-based; conditions: 100 μM Gd^3+, nominally Ca^2+-free medium
T1 construct: the complete open reading frame of LTRPC3 with a C-terminal HA tag was transiently transfected into HEK 293 cells; expressed in transfected cells; host or cells: HEK 293 cells, transient transfection with pcDNA3.1/Hygro-LTRPC3-HA
T1 sequence (Q9HCF6 with tags, fused parts or gaps isoform Q9HCF6-2 R1670Q limits assumed): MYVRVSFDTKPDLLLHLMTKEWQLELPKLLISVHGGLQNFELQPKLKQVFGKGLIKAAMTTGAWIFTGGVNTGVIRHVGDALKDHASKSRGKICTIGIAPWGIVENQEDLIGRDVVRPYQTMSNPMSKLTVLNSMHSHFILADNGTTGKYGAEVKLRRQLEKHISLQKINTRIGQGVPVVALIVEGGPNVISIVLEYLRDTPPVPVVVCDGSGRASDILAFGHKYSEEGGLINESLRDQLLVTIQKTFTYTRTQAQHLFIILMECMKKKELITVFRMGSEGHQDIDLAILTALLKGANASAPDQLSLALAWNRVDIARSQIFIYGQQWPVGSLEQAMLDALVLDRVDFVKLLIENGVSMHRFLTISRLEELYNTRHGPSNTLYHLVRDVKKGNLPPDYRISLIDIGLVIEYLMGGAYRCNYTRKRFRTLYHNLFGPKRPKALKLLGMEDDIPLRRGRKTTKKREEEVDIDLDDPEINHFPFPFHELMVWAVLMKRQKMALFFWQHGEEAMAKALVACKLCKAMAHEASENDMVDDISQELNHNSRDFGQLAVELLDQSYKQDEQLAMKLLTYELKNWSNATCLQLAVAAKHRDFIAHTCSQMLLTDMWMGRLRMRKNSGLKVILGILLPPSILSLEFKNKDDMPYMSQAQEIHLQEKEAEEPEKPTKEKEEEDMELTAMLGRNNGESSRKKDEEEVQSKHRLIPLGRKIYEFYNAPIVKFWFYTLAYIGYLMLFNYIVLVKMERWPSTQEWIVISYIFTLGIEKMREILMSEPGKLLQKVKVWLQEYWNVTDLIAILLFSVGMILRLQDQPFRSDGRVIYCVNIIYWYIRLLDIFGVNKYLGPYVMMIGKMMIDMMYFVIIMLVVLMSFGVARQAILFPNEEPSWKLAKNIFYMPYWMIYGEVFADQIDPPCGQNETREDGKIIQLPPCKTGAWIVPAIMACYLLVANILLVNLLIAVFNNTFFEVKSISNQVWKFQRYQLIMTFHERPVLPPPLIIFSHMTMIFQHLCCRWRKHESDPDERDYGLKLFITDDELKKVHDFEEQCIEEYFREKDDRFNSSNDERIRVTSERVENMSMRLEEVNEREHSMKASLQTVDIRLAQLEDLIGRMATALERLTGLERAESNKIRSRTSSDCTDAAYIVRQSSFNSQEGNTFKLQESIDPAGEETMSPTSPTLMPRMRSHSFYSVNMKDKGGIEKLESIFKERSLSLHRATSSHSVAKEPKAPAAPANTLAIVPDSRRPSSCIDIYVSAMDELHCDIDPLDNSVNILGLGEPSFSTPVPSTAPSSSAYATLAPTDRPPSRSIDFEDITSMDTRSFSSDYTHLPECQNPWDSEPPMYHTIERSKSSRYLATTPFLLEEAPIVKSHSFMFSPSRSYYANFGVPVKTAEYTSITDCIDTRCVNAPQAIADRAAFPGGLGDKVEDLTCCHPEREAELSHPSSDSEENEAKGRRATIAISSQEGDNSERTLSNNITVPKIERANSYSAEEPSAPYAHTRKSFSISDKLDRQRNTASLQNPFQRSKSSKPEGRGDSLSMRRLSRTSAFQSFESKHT

LTRPC3 [3] = target: T1, LTRPC3; experiment: as above; assay type: cell-based; conditions: for effect on LTRPC3 mediated Ca^2+ currents / entry (in words): 100 μM for 10 min, 1 mM Ca^2+ solution, then 10 mM Ca^2+; for block of LTRPC3 Ca^2+ currents: pre-treatment with 100 μM, 1 mM Ca^2+ present, stimulated by adding 10 mM Ca^2+ (FIG. 19C)
Protocol: […] (A), or 50 μM carbachol (B) was first added to LTRPC3 expressing HEK 293 cells in the absence of external Ca^2+. After 9 minutes, 2 mM Ca^2+ solution was added to the cell medium at the indicated times.Currents for vector transfected HEK 293 cells, and LTRPC3 expressing HEK 293 cells are labeled accordingly. […] Cells loaded with Fluo-4 were incubated in 1 mM Ca^2+ solution and treated with 100 μM of La^3+ (“w/La^3+”), Gd^3+ (“w/Gd^3+”) or without blockers (“w/o blocker”) for 10 min prior to the addition of 10 mM Ca^2+ to the cell medium as indicated. Curves represent averages of three independent experiments, each involving at least 8 wells per condition. Physiometric methods were performed as described in Example 8 herein.
as §1, §2
The lanthamides, gadolinium (Gd^3+) and lanthanum (La^3+), are noneselective Ca^2+-permeable channel blockers, often used as part of the characterization of overexpressed TRP channels. […] In the presence of 1 mM Ca^2+ in which endogenous SOCs is minimally activated (FIG. 18A), pre-treatment with 100 μM of La^3+and Gd^3+blocked LTRPC3 Ca^2+ currents, stimulated by adding 10 mM Ca^2+, by 67 and 39%, respectively.
Additional experiments were performed to further confirm the Ca^2+ store-depleted activation of LTRPC3 using Gd^3+. The effects of 100 μM Gd^3+ on Ca^2+ permeability were tested in vector- and LTRPC3-transfected cells. […] In contrast, 100 μM Gd^3+ inhibited Ca^2+ entry, induced by adding 10 mM Ca^2+, by 53% in LTRPC3-transfected cells (see FIG. 22B). Gd^3+ reduced fluorescence units in vector-transfected cells from 1470±140 to −58±8 and in LTRPC3-transfected cells from 6000±322 to 2080±199 (n=12). Fluorescence values were measured 150 seconds after adding 10 mM Ca^2+ and percent blockade was calculated as 1 minus FLTRPC3−FVector in the presence of Gd^3+ divided by FLTRPC3−FVector without blocker. The effects of Gd^3+ on LTRPC3-mediated Ca^2+ entry, induced by 10 mM Ca^2+, in the presence of thapsigargin or carbachol was also examined. Cells were incubated in nominally Ca^2+-free medium for thapsigargin and carbachol experiments. Gd^3+ inhibited Ca^2+ entry by 51% after depletion of intracellular stores with thapsigargin (see FIG. 22B). Gd^3+ reduced peak fluorescence after 10 mM Ca^2+ addition in vector-transfected cells from 26444±2410 to 1316±60 and in LTRPC3-transfected cells from 37676±2425 to 6783±250 (see FIGS. 22C and D, respectively; n=12). […]

[4] = picogram quantities to the female vomeronasal organ; female recipients; cited from earlier work
[5] = test system: nigral dopaminergic neurons; conditions: gel foam implants in the striatum; cited from earlier work

Compound: C[N+](C)(C)CCOC(N)=O [CCh, Carbachol]
intracellular Ca^2+ response (in words) (HEK 293 cells; 50 μM CCh, LTRPC3- and vector-transfected cells): transient and rapid intracellular Ca^2+ increase

inhibition of Ca^2+ entry after depletion of intracellular stores with carbachol (LTRPC3 [2]; 10 mM Ca^2+ addition): 72% | inhibition of Ca^2+ entry after depletion of intracellular stores with thapsigargin (LTRPC3 [2]; 10 mM Ca^2+ addition): 51% | peak Ca^2+ fluorescence in LTRPC3-transfected cells, carbachol (LTRPC3 [2]; store depletion with carbachol, n=12): 1975±79 | peak fluorescence after 10 mM Ca^2+ addition in LTRPC3-transfected cells, thapsigargin (LTRPC3 [2]; store depletion with thapsigargin, n=12): 6783±250 | fluorescence units in LTRPC3-transfected cells in the presence of Gd^3+ (LTRPC3 [3]; 100 μM Gd^3+, 1 mM Ca^2+, 150 seconds after adding 10 mM Ca^2+, n=12): 2080±199 fluorescence units | inhibition of Ca^2+ entry in LTRPC3-transfected cells (percent blockade) (LTRPC3 [3]; 100 μM Gd^3+, cells in 1 mM Ca^2+, entry induced by adding 10 mM Ca^2+, 150 seconds, vector signal subtracted): 53% | effect on LTRPC3 mediated Ca^2+ currents / entry (in words) (LTRPC3 [3]): partially inhibited | block of LTRPC3 Ca^2+ currents (LTRPC3 [3]): 39%
Compound: [Gd+3] [Gd^3+, gadolinium]
fluorescence units in vector-transfected cells in the presence of Gd^3+ ([1]; 1 mM Ca^2+, 150 seconds after adding 10 mM Ca^2+, n=12): −58±8 fluorescence units | effect on minimal Ca^2+ influx in vector-transfected cells (in words) ([1]; 1 mM Ca^2+, addition of 10 mM Ca^2+): strongly inhibited | peak Ca^2+ fluorescence in vector-transfected cells, carbachol ([1]; store depletion with carbachol, nominally Ca^2+-free medium, n=12): 453±15 | peak fluorescence after 10 mM Ca^2+ addition in vector-transfected cells, thapsigargin ([1]; store depletion with thapsigargin, nominally Ca^2+-free medium, n=12): 1316±60

effect on LTRPC3 mediated Ca^2+ currents / entry (in words) (LTRPC3 [3]): inhibited | block of LTRPC3 Ca^2+ currents (LTRPC3 [3]): 67%
Compound: [La+3] [La^3+, lanthanum]

Compound: C[C@@]12C=CC[C@H]1[C@@H]1CCC3=CC(=O)CC[C@]3(C)[C@H]1CC2 [androstadienone]
nervousness, tension and other negative feelings [4]: significant reduction

Compound: C/C=C(/C)C(=O)O[C@H]1C(C)=C2[C@H]([C@@H]1OC(=O)CCCCCCC)[C@@](C)(OC(C)=O)C[C@H](OC(=O)CCC)[C@@]1(O)[C@H]2OC(=O)[C@@]1(C)O [thapsigargin]
depletion of Ca^2+ stores (in words) (HEK 293 cells; 2 μM thapsigargin, LTRPC3-HA- and vector-transfected cells): equivalently depleted

Compound: FGF-2: FGF-2 (basic FGF), fibroblast growth factor
protection of nigral dopaminergic neurons from the toxicity associated with MPTP exposure [5]: near complete protection

— patent publication US7504481B2, “TRP channel family member, LTRPC3 polypeptides” (Bristol-Meyers Squibb Company, priority 2001, dated 2009)
